Starred links: 1 amine or outer side, 2 acyl side, 3 side chain; linkers in the order of their positions; H or OH if unused. Residues, ends and D or L forms follow the SMILES beside them. Groups on a side chain read outwards from the residue. *: point of attachment. C18 diacid = O=C(O)CCCCCCCCCCCCCCCCC(=O)*; γGlu = O=C(O)[C@H](CCC(=O)[*:2])N[*:1]
Key:
[1] = target: T1, human calcitonin receptor (hCTR) (Homo sapiens, UniProt P30988); assay: Human calcitonin receptor (hCTR) in vitro potency assay, CRE-luciferase reporter in BHK cells; assay type: cell-based; conditions: BHK hCTR/CRE-Luc cells, 3 hours incubation, assay buffer with 1% ovalbumin; read-out: hCalcR potency, EC50
T1 construct: host or cells: BHK (Baby Hamster Kidney), Hollex-1 cell line
T1 sequence (P30988 25-474): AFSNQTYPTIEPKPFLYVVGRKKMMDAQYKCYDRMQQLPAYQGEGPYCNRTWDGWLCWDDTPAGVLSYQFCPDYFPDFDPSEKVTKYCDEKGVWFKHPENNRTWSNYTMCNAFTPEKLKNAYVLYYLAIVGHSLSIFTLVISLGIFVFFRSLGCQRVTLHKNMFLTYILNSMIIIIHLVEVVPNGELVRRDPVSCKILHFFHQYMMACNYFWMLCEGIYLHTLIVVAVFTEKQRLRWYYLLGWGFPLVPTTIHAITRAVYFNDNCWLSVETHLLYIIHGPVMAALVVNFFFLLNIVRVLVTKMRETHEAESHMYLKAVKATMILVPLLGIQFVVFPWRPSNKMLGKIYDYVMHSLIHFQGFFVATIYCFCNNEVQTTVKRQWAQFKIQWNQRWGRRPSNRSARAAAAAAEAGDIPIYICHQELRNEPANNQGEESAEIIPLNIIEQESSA
Method in brief: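 Luciferase signal from a CRE reporter served as the cAMP read-out after 3 h, 37 °C exposure to compound. Cells were stably transfected BHK expressing hCTR, and the buffer was phenol-red-free DMEM with 10 mM HEPES and 1% ovalbumin. Compounds were tested as 7-point, 7-fold dilutions, often from about 10 nM.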

[2] = target: T2, human amylin receptor (hAMYR3) (Homo sapiens, UniProt O60896+P30988); assay: Human amylin receptor (hAMYR3) in vitro potency assay, CRE-luciferase reporter in BHK cells; assay type: cell-based; conditions: BHK hAMYR3/CRE-Luc cells, 3 hours incubation, assay buffer with 1% ovalbumin
T2 construct: host or cells: BHK (Baby Hamster Kidney), Hollex-1 cell line further transfected with RAMP3
Method in brief: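 Luminescence from a CRE-driven luciferase reporter reflects cAMP-mediated receptor activation. Peptides were serially diluted (7 concentrations, 7-fold steps, typically starting near 10 nM) in buffer with 1% ovalbumin and applied for 3 h at 37 °C to BHK cells co-expressing calcitonin receptor (a) and RAMP3.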

T2 sequence (O60896 24-148, one chain of several): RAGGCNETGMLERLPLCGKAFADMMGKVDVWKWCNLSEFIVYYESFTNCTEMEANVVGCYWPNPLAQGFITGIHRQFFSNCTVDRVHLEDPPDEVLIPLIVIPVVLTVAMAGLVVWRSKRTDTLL

SMILES	EC50 [1]	EC50 [2]
CC[C@H](C)[C@H](NC(=O)[C@@H]1CCCN1C(=O)CNC(=O)[C@H](Cc1ccccc1)NC(=O)[C@H](Cc1c[nH]cn1)NC(=O)[C@H](Cc1c[nH]cn1)NC(=O)[C@H](CC(C)C)NC(=O)[C@H](Cc1ccccc1)NC(=O)[C@H](CCC(=O)O)NC(=O)[C@H](C)NC(=O)[C@H](CC(C)C)NC(=O)[C@H](CCCNC(=N)N)NC(=O)[C@H](CCC(N)=O)NC(=O)[C@@H](NC(=O)[C@H](CCC(N)=O)NC(=O)[C@H](C)NC(=O)[C@@H](NC(=O)[C@H](CO)NC(=O)[C@H](CC(C)C)NC(=O)[C@H](CCC(=O)O)NC(=O)[C@H](CO)NC(=O)[C@H](C)NC(=O)CC[C@H](NC(=O)CCCCCCCCCCCCCCCCC(=O)O)C(=O)O)[C@@H](C)O)[C@@H](C)O)C(=O)N[C@@H](CC(C)C)C(=O)N1CCC[C@H]1C(=O)N1CCC[C@H]1C(=O)N[C@H](C(=O)N[C@@H](CC(=O)O)C(=O)N[C@H](C(=O)NCC(=O)N[C@@H](CO)C(=O)N[C@@H](CCC(=O)O)C(=O)N[C@H](C(=O)N1CCC[C@H]1C(N)=O)[C@@H](C)O)C(C)C)[C@@H](C)O [Compound 29, N^1-[(4S)-4-carboxy-4-(17-carboxyheptadecanoylamino)butanoyl]-[Ala1,Ser2,Glu3,Leu4,Ser5,Ala7,Gln8,Glu14,His17,Pro25,Pro28,Pro29,Asp31,Glu35,Pro37],des-(19-22)-human amylin] ({C18 diacid-γGlu}-ASELSTAQTQRLAEFLHHFGPILPPTDVGSETP-NH2)	3.08 pM	5.2 pM
CC[C@H](C)[C@H](NC(=O)[C@H](CCCCNC(=O)CC[C@H](NC(=O)CCCCCCCCCCCCCCCCC(=O)O)C(=O)O)NC(=O)CNC(=O)[C@H](Cc1ccccc1)NC(=O)[C@H](CC(N)=O)NC(=O)[C@H](CC(=O)O)NC(=O)[C@H](CO)NC(=O)[C@H](CO)NC(=O)[C@H](Cc1c[nH]cn1)NC(=O)[C@H](Cc1c[nH]cn1)NC(=O)[C@H](CC(C)C)NC(=O)[C@H](Cc1ccccc1)NC(=O)[C@H](CCC(=O)O)NC(=O)[C@H](C)NC(=O)[C@H](CC(C)C)NC(=O)[C@H](CCCNC(=N)N)NC(=O)[C@H](CCC(N)=O)NC(=O)[C@@H](NC(=O)[C@H](CCC(N)=O)NC(=O)[C@H](C)NC(=O)[C@@H](NC(=O)[C@H](CO)NC(=O)[C@H](CC(C)C)NC(=O)[C@H](CCC(N)=O)NC(=O)[C@H](CO)NC(=O)[C@H](C)NC(C)=O)[C@@H](C)O)[C@@H](C)O)C(=O)N[C@@H](CC(C)C)C(=O)N1CCC[C@H]1C(=O)N1CCC[C@H]1C(=O)N[C@H](C(=O)N[C@@H](CC(=O)O)C(=O)N[C@H](C(=O)NCC(=O)N[C@@H](CO)C(=O)N[C@@H](CC(N)=O)C(=O)N[C@H](C(=O)N1CCC[C@H]1C(N)=O)[C@@H](C)O)C(C)C)[C@@H](C)O [Compound 18, N^1-acetyl,N{Epsilon-25}-[(4S)-4-carboxy-4-(17-carboxyheptadecanoylamino)butanoyl]-[Ala1,Ser2,Gln3,Leu4,Ser5,Ala7,Gln8,Glu14,His17,Asp21,Lys25,Pro28,Pro29,Asp31,Pro37]-human amylin] (Ac-ASQLSTAQTQRLAEFLHHSSDNFGK([γGlu-C18 diacid])ILPPTDVGSNTP-NH2)	1.19 pM	1.38 pM
CC[C@H](C)[C@H](NC(=O)[C@H](C)NC(=O)CNC(=O)[C@H](Cc1ccccc1)NC(=O)[C@@H]1CCCN1C(=O)[C@H](CC(=O)O)NC(=O)[C@H](CO)NC(=O)[C@H](CO)NC(=O)[C@H](Cc1c[nH]cn1)NC(=O)[C@H](Cc1c[nH]cn1)NC(=O)[C@H](CC(C)C)NC(=O)[C@H](Cc1ccccc1)NC(=O)[C@H](CCC(=O)O)NC(=O)[C@H](C)NC(=O)[C@H](CC(C)C)NC(=O)[C@H](CCCNC(=N)N)NC(=O)[C@H](CCC(N)=O)NC(=O)[C@@H](NC(=O)[C@H](CCC(N)=O)NC(=O)[C@H](C)NC(=O)[C@@H](NC(=O)[C@H](C)NC(=O)[C@H](CC(C)C)NC(=O)[C@H](CC(N)=O)NC(=O)[C@H](CO)NC(=O)[C@H](C)NC(=O)CC[C@H](NC(=O)CCCCCCCCCCCCCCCCC(=O)O)C(=O)O)[C@@H](C)O)[C@@H](C)O)C(=O)N1CCC[C@H]1C(=O)N[C@@H](CO)C(=O)N[C@@H](CO)C(=O)N[C@H](C(=O)N[C@@H](CC(=O)O)C(=O)N[C@H](C(=O)NCC(=O)N1CCC[C@H]1C(=O)N[C@@H](CC(=O)O)C(=O)N[C@H](C(=O)N1CCC[C@H]1C(N)=O)[C@@H](C)O)C(C)C)[C@@H](C)O [Compound 12, N^1-[(4S)-4-carboxy-4-(17-carboxyheptadecanoylamino)butanoyl]-[Ala1,Ser2,Leu4,Ala7,Gln8,Glu14,His17,Asp21,Pro22,Pro27,Asp31,Pro34,Asp35,Pro37]-human amylin] ({C18 diacid-γGlu}-ASNLATAQTQRLAEFLHHSSDPFGAIPSSTDVGPDTP-NH2)	1.99 pM	1.88 pM
CC[C@H](C)[C@H](NC(=O)[C@H](C)NC(=O)CNC(=O)[C@H](Cc1ccccc1)NC(=O)[C@@H]1CCCN1C(=O)[C@H](CC(=O)O)NC(=O)[C@H](CO)NC(=O)[C@H](CO)NC(=O)[C@H](Cc1c[nH]cn1)NC(=O)[C@H](Cc1c[nH]cn1)NC(=O)[C@H](CC(C)C)NC(=O)[C@H](Cc1ccccc1)NC(=O)[C@H](CCC(=O)O)NC(=O)[C@H](C)NC(=O)[C@H](CC(C)C)NC(=O)[C@H](CCCNC(=N)N)NC(=O)[C@H](CCC(N)=O)NC(=O)[C@@H](NC(=O)[C@H](CCC(N)=O)NC(=O)[C@H](C)NC(=O)[C@@H](NC(=O)[C@H](CO)NC(=O)[C@H](CC(C)C)NC(=O)[C@H](CCC(=O)O)NC(=O)CNC(=O)[C@H](C)NC(=O)CC[C@H](NC(=O)CCCCCCCCCCCCCCCCC(=O)O)C(=O)O)[C@@H](C)O)[C@@H](C)O)C(=O)N1CCC[C@H]1C(=O)N[C@@H](CO)C(=O)N[C@@H](CO)C(=O)N[C@H](C(=O)N[C@@H](CC(=O)O)C(=O)N[C@H](C(=O)NCC(=O)N1CCC[C@H]1C(=O)N[C@@H](CC(=O)O)C(=O)N[C@H](C(=O)N1CCC[C@H]1C(N)=O)[C@@H](C)O)C(C)C)[C@@H](C)O [Compound 11, N^1-[(4S)-4-carboxy-4-(17-carboxyheptadecanoylamino)butanoyl]-[Ala1,Gly2,Glu3,Leu4,Ser5,Ala7,Gln8,Glu14,His17,Asp21,Pro22,Pro27,Asp31,Pro34,Asp35,Pro37]-human amylin] ({C18 diacid-γGlu}-AGELSTAQTQRLAEFLHHSSDPFGAIPSSTDVGPDTP-NH2)	1.58 pM	2.43 pM
